Earlier results, collected in patent publication US20010001064A1, “Flow electroporation chamber and methods of use thereof” (priority 1998, published 2001).

Experiments:
[1] = target: T1, hemoglobin (Homo sapiens, UniProt P68871+P69905); conditions: pH 7.4, 37 degrees C.
[2] = target: T1, hemoglobin; conditions: relative to DPG

T1 sequence (P69905 2-142 limits assumed): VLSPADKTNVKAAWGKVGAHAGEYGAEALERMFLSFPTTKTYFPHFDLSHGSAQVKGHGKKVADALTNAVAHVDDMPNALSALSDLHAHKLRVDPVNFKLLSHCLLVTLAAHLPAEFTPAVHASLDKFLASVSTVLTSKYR
T1 sequence (P68871 2-147 limits assumed): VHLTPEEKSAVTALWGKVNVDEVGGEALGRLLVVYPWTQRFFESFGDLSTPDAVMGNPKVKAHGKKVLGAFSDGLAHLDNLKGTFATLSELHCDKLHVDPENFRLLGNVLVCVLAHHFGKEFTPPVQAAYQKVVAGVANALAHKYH

P50 of hemoglobin [1]: ≤ 96.4 mm Hg | affinity to hemoglobin, higher than DPG [2]: 1000 fold
SMILES: O=P(O)(O)O[C@H]1[C@H](OP(=O)(O)O)[C@@H](OP(=O)(O)O)[C@H](OP(=O)(O)O)[C@@H](OP(=O)(O)O)[C@H]1OP(=O)(O)O [IHP, inositol hexaphosphate]
